According to patent publication US20250179061A1 (SIRONAX LTD., priority 2022, published 2025):

system: HT-29 cells; experiment: HT-29 necroptosis cell viability assay (TNF-α/SMAC mimetic/zVAD-FMK, CellTiter-Glo); format: cell-based; details: Homo sapiens, HT-29, HT-29 necroptosis cell viability assay; class symbols for IC50; read-out: Activity
Procedure, shortened: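 HT-29 cells (~5,000/well, overnight) in FBS-free McCoy's 5A with TNF-α 10 ng/ml, SMAC mimetic 6 μM and zVAD-FMK 10 μM plus 10-point 1:3 compound titration, 20 h at 37°C. ATP measured by CellTiter-Glo luminescence; IC50 as geometric mean of duplicates.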

`Cc1c(N2CC(C)(NC(=O)OC(C)(C)C)C2)ncn1Cc1ccc(-n2ncn(Cc3c(F)cccc3F)c2=O)cc1` [Example 538, tert-butyl (1-(1-(4-(4-(2,6-difluorobenzyl)-5-oxo-4,5-dihydro-1H-1,2,4-triazol-1-yl)benzyl)-5-methyl-1H-imidazol-4-yl)-3-methylazetidin-3-yl)carbamate] and `Cc1c(I)ncn1Cc1ccc(-n2ncn(Cc3c(F)cccc3F)c2=O)cc1` [Example 539, 4-(2,6-difluorobenzyl)-2-(4-((4-iodo-5-methyl-1H-imidazol-1-yl)methyl)phenyl)-2,4-dihydro-3H-1,2,4-triazol-3-one] cannot be ordered by IC50: under 100 nM for the first, under 100 nM for the second.

`Cc1ncn(Cc2ccc(-n3ncn(Cc4c(F)cccc4F)c3=O)cc2)c1I` [Example 540, 4-(2,6-difluorobenzyl)-2-(4-((5-iodo-4-methyl-1H-imidazol-1-yl)methyl)phenyl)-2,4-dihydro-3H-1,2,4-triazol-3-one] and `Cn1nccc1Cc1ccc(-n2ncn(Cc3c(F)cccc3F)c2=O)cc1` [Example 545, 4-(2,6-difluorobenzyl)-2-(4-((1-methyl-1H-pyrazol-5-yl)methyl)phenyl)-2,4-dihydro-3H-1,2,4-triazol-3-one] cannot be ordered by IC50: under 100 nM for the first, under 100 nM for the second.

`Cc1cc(N2CC(C)(C#N)C2)nn1Cc1ccc(-n2ncn(Cc3c(F)cccc3F)c2=O)cc1` [Example 541, 1-(1-(4-(4-(2,6-difluorobenzyl)-5-oxo-4,5-dihydro-1H-1,2,4-triazol-1-yl)benzyl)-5-methyl-1H-pyrazol-3-yl)-3-methylazetidine-3-carbonitrile] and `Cc1cnc(N2CC(C)(C(N)=O)C2)cc1Oc1ccc(-n2ncn(Cc3c(F)cccc3F)c2=O)cc1Cl` [Example 568, 1-(4-(2-chloro-4-(4-(2,6-difluorobenzyl)-5-oxo-4,5-dihydro-1H-1,2,4-triazol-1-yl)phenoxy)-5-methylpyridin-2-yl)-3-methylazetidine-3-carboxamide] cannot be ordered by IC50: under 100 nM for the first, under 100 nM for the second.

`Cc1nc(C2=CCNC2)sc1Oc1ccc(-n2ncn(Cc3c(F)cccc3F)c2=O)cc1` [Example 542, 4-(2,6-difluorobenzyl)-2-(4-((2-(2,5-dihydro-1H-pyrrol-3-yl)-4-methylthiazol-5-yl)oxy)phenyl)-2,4-dihydro-3H-1,2,4-triazol-3-one] and `Cc1nc(C2=CCCC2)sc1Oc1ccc(-n2ncn(Cc3c(F)cccc3F)c2=O)cc1` [Example 546, 2-(4-((2-(cyclopent-1-en-1-yl)-4-methylthiazol-5-yl)oxy)phenyl)-4-(2,6-difluorobenzyl)-2,4-dihydro-3H-1,2,4-triazol-3-one] cannot be ordered by IC50: under 100 nM for the first, under 100 nM for the second.

`Cc1nc(-c2ccnn2C)sc1Oc1ccc(-n2ncn(Cc3c(F)cccc3F)c2=O)cc1` [Example 544, 4-(2,6-difluorobenzyl)-2-(4-((4-methyl-2-(1-methyl-1H-pyrazol-5-yl)thiazol-5-yl)oxy)phenyl)-2,4-dihydro-3H-1,2,4-triazol-3-one] and `Cc1nc(C(N)=O)sc1Oc1ccc(-n2ncn(Cc3c(F)cccc3F)c2=O)cc1` [Example 560, 5-(4-(4-(2,6-difluorobenzyl)-5-oxo-4,5-dihydro-1H-1,2,4-triazol-1-yl)phenoxy)-4-methylthiazole-2-carboxamide] cannot be ordered by IC50: under 100 nM for the first, under 100 nM for the second.

`Cc1nc(C=C2COC2)sc1Oc1ccc(-n2ncn(Cc3c(F)cccc3F)c2=O)cc1` [Example 547, 4-(2,6-difluorobenzyl)-2-(4-((4-methyl-2-(oxetan-3-ylidenemethyl)thiazol-5-yl)oxy)phenyl)-2,4-dihydro-3H-1,2,4-triazol-3-one] and `Cc1nc(CC2COC2)sc1Oc1ccc(-n2ncn(Cc3c(F)cccc3F)c2=O)cc1` [Example 552, 4-(2,6-difluorobenzyl)-2-(4-((4-methyl-2-(oxetan-3-ylmethyl)thiazol-5-yl)oxy)phenyl)-2,4-dihydro-3H-1,2,4-triazol-3-one] cannot be ordered by IC50: under 100 nM for the first, under 100 nM for the second.

First: O=c1n(Cc2c(F)cccc2F)cnn1-c1ccc(Oc2cc(C3=CCOCC3)ncc2F)c(F)c1 [Example 548, 4-(2,6-difluorobenzyl)-2-(4-((2-(3,6-dihydro-2H-pyran-4-yl)-5-fluoropyridin-4-yl)oxy)-3-fluorophenyl)-2,4-dihydro-3H-1,2,4-triazol-3-one]
Second: O=c1n(Cc2c(F)cccc2F)cnn1-c1ccc(Oc2cc(C3CCOCC3)ncc2F)c(F)c1 [Example 553, 4-(2,6-difluorobenzyl)-2-(3-fluoro-4-((5-fluoro-2-(tetrahydro-2H-pyran-4-yl)pyridin-4-yl)oxy)phenyl)-2,4-dihydro-3H-1,2,4-triazol-3-one]
The IC50 of the first is lower: under 100 nM for the first, 100 to 1000 nM for the second. The first is the more potent here.

`Cc1nc(C2CCNC2)sc1Oc1ccc(-n2ncn(Cc3c(F)cccc3F)c2=O)cc1` (centres unmarked) [Example 549, 4-(2,6-difluorobenzyl)-2-(4-((4-methyl-2-(pyrrolidin-3-yl)thiazol-5-yl)oxy)phenyl)-2,4-dihydro-3H-1,2,4-triazol-3-one] and `Cc1nc(C2CCOC2)sc1Oc1ccc(-n2ncn(Cc3c(F)cccc3F)c2=O)cc1` (centres unmarked) [Example 550, 4-(2,6-difluorobenzyl)-2-(4-((4-methyl-2-(tetrahydrofuran-3-yl)thiazol-5-yl)oxy)phenyl)-2,4-dihydro-3H-1,2,4-triazol-3-one] cannot be ordered by IC50: under 100 nM for the first, under 100 nM for the second.

`Cc1nc(C2CCOCC2)sc1Oc1ccc(-n2ncn(Cc3c(F)cccc3F)c2=O)cc1` [Example 551, 4-(2,6-difluorobenzyl)-2-(4-((4-methyl-2-(tetrahydro-2H-pyran-4-yl)thiazol-5-yl)oxy)phenyl)-2,4-dihydro-3H-1,2,4-triazol-3-one] and `Cc1nc(C2CCCC2)sc1Oc1ccc(-n2ncn(Cc3c(F)cccc3F)c2=O)cc1` [Example 558, 2-(4-((2-cyclopentyl-4-methylthiazol-5-yl)oxy)phenyl)-4-(2,6-difluorobenzyl)-2,4-dihydro-3H-1,2,4-triazol-3-one] cannot be ordered by IC50: under 100 nM for the first, under 100 nM for the second.

`Cc1nc(C2CCN(C)C2)sc1Oc1ccc(-n2ncn(Cc3c(F)cccc3F)c2=O)cc1` (centres unmarked) [Example 554, 4-(2,6-difluorobenzyl)-2-(4-((4-methyl-2-(1-methylpyrrolidin-3-yl)thiazol-5-yl)oxy)phenyl)-2,4-dihydro-3H-1,2,4-triazol-3-one] and `Cc1nc(C#N)sc1Oc1ccc(-n2ncn(Cc3c(F)cccc3F)c2=O)cc1F` [Example 569, 5-(4-(4-(2,6-difluorobenzyl)-5-oxo-4,5-dihydro-1H-1,2,4-triazol-1-yl)-2-fluorophenoxy)-4-methylthiazole-2-carbonitrile] cannot be ordered by IC50: under 100 nM for the first, under 100 nM for the second.

`CC1(CN)CN(c2cc(Oc3ccc(-n4ncn(Cc5c(F)cccc5F)c4=O)cc3F)c(F)cn2)C1` [Example 555, 2-(4-((2-(3-(aminomethyl)-3-methylazetidin-1-yl)-5-fluoropyridin-4-yl)oxy)-3-fluorophenyl)-4-(2,6-difluorobenzyl)-2,4-dihydro-3H-1,2,4-triazol-3-one] and `CC1(CNC(=O)OC(C)(C)C)CN(c2cc(Oc3ccc(-n4ncn(Cc5c(F)cccc5F)c4=O)cc3F)c(F)cn2)C1` [Example 557, tert-butyl ((1-(4-(4-(4-(2,6-difluorobenzyl)-5-oxo-4,5-dihydro-1H-1,2,4-triazol-1-yl)-2-fluorophenoxy)-5-fluoropyridin-2-yl)-3-methylazetidin-3-yl)methyl)carbamate] cannot be ordered by IC50: under 100 nM for the first, under 100 nM for the second.

`C[C@H](O)C1CN(c2cc(Oc3ccc(-n4ncn(Cc5c(F)cccc5F)c4=O)cc3F)c(F)cn2)C1` [Example 556, (S)-4-(2,6-difluorobenzyl)-2-(3-fluoro-4-((5-fluoro-2-(3-(1-hydroxyethyl)azetidin-1-yl)pyridin-4-yl)oxy)phenyl)-2,4-dihydro-3H-1,2,4-triazol-3-one] and `Cc1nc(C(N)=O)sc1Oc1ccc(-n2ncn(Cc3c(F)cccc3F)c2=O)cc1F` [Example 559, 5-(4-(4-(2,6-difluorobenzyl)-5-oxo-4,5-dihydro-1H-1,2,4-triazol-1-yl)-2-fluorophenoxy)-4-methylthiazole-2-carboxamide] cannot be ordered by IC50: under 100 nM for the first, under 100 nM for the second.

First: Cc1nc(C#N)sc1Oc1ccc(-n2ncn(Cc3ccccc3F)c2=O)cc1F [Example 561, 5-(2-fluoro-4-(4-(2-fluorobenzyl)-5-oxo-4,5-dihydro-1H-1,2,4-triazol-1-yl)phenoxy)-4-methylthiazole-2-carbonitrile]
Second: Cc1nc(C#N)sc1Oc1ccc(-n2ncn(Cc3ccccc3C#N)c2=O)cc1F [Example 570, 5-(4-(4-(2-cyanobenzyl)-5-oxo-4,5-dihydro-1H-1,2,4-triazol-1-yl)-2-fluorophenoxy)-4-methylthiazole-2-carbonitrile]
The IC50 of the first is lower: under 100 nM for the first, 100 to 1000 nM for the second.

`Cc1nc(C(N)=O)sc1Oc1ccc(-n2ncn(Cc3ccccc3F)c2=O)cc1F` [Example 562, 5-(2-fluoro-4-(4-(2-fluorobenzyl)-5-oxo-4,5-dihydro-1H-1,2,4-triazol-1-yl)phenoxy)-4-methylthiazole-2-carboxamide] and `Cc1nc(C(N)=O)sc1Oc1ccc(-n2ncn(Cc3ccccc3C#N)c2=O)cc1F` [Example 566, 5-(4-(4-(2-cyanobenzyl)-5-oxo-4,5-dihydro-1H-1,2,4-triazol-1-yl)-2-fluorophenoxy)-4-methylthiazole-2-carboxamide] cannot be ordered by IC50: under 100 nM for the first, under 100 nM for the second.

`Cc1ncsc1Oc1ccc(-n2ncn(Cc3cc(F)ccc3F)c2=O)cc1F` [Example 563, 4-(2,5-difluorobenzyl)-2-(3-fluoro-4-((4-methylthiazol-5-yl)oxy)phenyl)-2,4-dihydro-3H-1,2,4-triazol-3-one] and `Cc1nc(C(N)=O)sc1Oc1ccc(-n2ncn(Cc3cc(F)ccc3F)c2=O)cc1F` [Example 564, 5-(4-(4-(2,5-difluorobenzyl)-5-oxo-4,5-dihydro-1H-1,2,4-triazol-1-yl)-2-fluorophenoxy)-4-methylthiazole-2-carboxamide] cannot be ordered by IC50: under 100 nM for the first, under 100 nM for the second.

Compared with `Cc1nc(C(N)=O)sc1Oc1ccc(-n2ncn(Cc3cc(Cl)ccn3)c2=O)cc1F` [Example 565], `Cc1nc(C(N)=O)sc1Oc1ccc(-n2ncn(Cc3c(F)cccc3C#N)c2=O)cc1F` [Example 567, 5-(4-(4-(2-cyano-6-fluorobenzyl)-5-oxo-4,5-dihydro-1H-1,2,4-triazol-1-yl)-2-fluorophenoxy)-4-methylthiazole-2-carboxamide] is lower in IC50: 100 to 1000 nM for the first, under 100 nM for the second. The second is the more potent here.
